# Reference: ChEMBL document CHEMBL2346657, “Synthesis of novel 2-amino-4-(5'-substituted 2'-phenyl-1H-indol-3'-yl)-6-aryl-4H-pyran-3-carbonitrile derivatives as antimicrobial and antioxidant agents” (2013)
# The source made the active and inactive calls. The rule behind the calls is not given here.
# Columns and labels:
# Type in all cases: functional
# [1] = Antioxidant activity assessed as metal chelating activity by measuring inhibition of ferrozine-Fe2+ complex formation at 25 to 100 ug/ml
# [2] = system: Aspergillus flavus; assay: Antimicrobial activity against Aspergillus flavus MTCC 1973 at 500 ug/ml after 72 hrs by cup plate method; conditions: MTCC 1973, 72 h, read-out: IZ
# [3] = system: Aspergillus flavus; assay: Antimicrobial activity against Aspergillus flavus MTCC 1973 at 750 ug/ml after 72 hrs by cup plate method; conditions: MTCC 1973, 72 h, read-out: IZ
# [4] = system: Aspergillus flavus; assay: Antimicrobial activity against Aspergillus flavus MTCC 1973 at 1000 ug/ml after 72 hrs by cup plate method; conditions: MTCC 1973, 72 h, read-out: IZ
# [5] = system: Aspergillus terreus; assay: Antimicrobial activity against Aspergillus terreus MTCC 1782 at 500 ug/ml after 72 hrs by cup plate method; conditions: MTCC 1782, 72 h, read-out: IZ
# [6] = system: Aspergillus terreus; assay: Antimicrobial activity against Aspergillus terreus MTCC 1782 at 750 ug/ml after 72 hrs by cup plate method; conditions: MTCC 1782, 72 h, read-out: IZ
# [7] = system: Aspergillus terreus; assay: Antimicrobial activity against Aspergillus terreus MTCC 1782 at 1000 ug/ml after 72 hrs by cup plate method; conditions: MTCC 1782, 72 h, read-out: IZ
# [8] = system: Aspergillus oryzae; assay: Antimicrobial activity against Aspergillus oryzae MTCC 3567 at 500 ug/ml after 72 hrs by cup plate method; conditions: MTCC 3567, 72 h, read-out: IZ
# [9] = system: Aspergillus oryzae; assay: Antimicrobial activity against Aspergillus oryzae MTCC 3567 at 750 ug/ml after 72 hrs by cup plate method; conditions: MTCC 3567, 72 h, read-out: IZ
# [10] = system: Aspergillus oryzae; assay: Antimicrobial activity against Aspergillus oryzae MTCC 3567 at 1000 ug/ml after 72 hrs by cup plate method; conditions: MTCC 3567, 72 h, read-out: IZ
# [11] = system: Aspergillus niger; assay: Antimicrobial activity against Aspergillus niger MTCC 281 at 500 ug/ml after 72 hrs by cup plate method; conditions: MTCC 281, 72 h, read-out: IZ
# [12] = system: Aspergillus niger; assay: Antimicrobial activity against Aspergillus niger MTCC 281 at 750 ug/ml after 72 hrs by cup plate method; conditions: MTCC 281, 72 h, read-out: IZ
# [13] = system: Aspergillus niger; assay: Antimicrobial activity against Aspergillus niger MTCC 281 at 1000 ug/ml after 72 hrs by cup plate method; conditions: MTCC 281, 72 h, read-out: IZ
# [14] = system: Pseudomonas aeruginosa; assay: Antimicrobial activity against Pseudomonas aeruginosa MTCC 1688 at 500 ug/ml after 24 hrs by cup plate method; conditions: MTCC 1688, 24 h, read-out: IZ
# [15] = system: Pseudomonas aeruginosa; assay: Antimicrobial activity against Pseudomonas aeruginosa MTCC 1688 at 750 ug/ml after 24 hrs by cup plate method; conditions: MTCC 1688, 24 h, read-out: IZ
# [16] = system: Pseudomonas aeruginosa; assay: Antimicrobial activity against Pseudomonas aeruginosa MTCC 1688 at 1000 ug/ml after 24 hrs by cup plate method; conditions: MTCC 1688, 24 h, read-out: IZ
# [17] = system: Klebsiella pneumoniae; assay: Antimicrobial activity against Klebsiella pneumoniae NCTC 13368 at 500 ug/ml after 24 hrs by cup plate method; conditions: NCTC 13368, 24 h, read-out: IZ
# [18] = system: Klebsiella pneumoniae; assay: Antimicrobial activity against Klebsiella pneumoniae NCTC 13368 at 750 ug/ml after 24 hrs by cup plate method; conditions: NCTC 13368, 24 h, read-out: IZ
# [19] = system: Klebsiella pneumoniae; assay: Antimicrobial activity against Klebsiella pneumoniae NCTC 13368 at 1000 ug/ml after 24 hrs by cup plate method; conditions: NCTC 13368, 24 h, read-out: IZ
# [20] = system: Staphylococcus aureus; assay: Antimicrobial activity against Staphylococcus aureus ATCC 29513 at 500 ug/ml after 24 hrs by cup plate method; conditions: ATCC 29513, 24 h, read-out: IZ
# [21] = system: Staphylococcus aureus; assay: Antimicrobial activity against Staphylococcus aureus ATCC 29513 at 750 ug/ml after 24 hrs by cup plate method; conditions: ATCC 29513, 24 h, read-out: IZ
# [22] = system: Staphylococcus aureus; assay: Antimicrobial activity against Staphylococcus aureus ATCC 29513 at 1000 ug/ml after 24 hrs by cup plate method; conditions: ATCC 29513, 24 h, read-out: IZ
# [23] = system: Escherichia coli; assay: Antimicrobial activity against Escherichia coli MTCC 723 at 500 ug/ml after 24 hrs by cup plate method; conditions: MTCC 723, 24 h, read-out: IZ
# [24] = system: Escherichia coli; assay: Antimicrobial activity against Escherichia coli MTCC 723 at 750 ug/ml after 24 hrs by cup plate method; conditions: MTCC 723, 24 h, read-out: IZ
# [25] = system: Escherichia coli; assay: Antimicrobial activity against Escherichia coli MTCC 723 at 1000 ug/ml after 24 hrs by cup plate method; conditions: MTCC 723, 24 h, read-out: IZ
SMILES,Activity [1],zone of inhibition at 500 µg/mL [2],zone of inhibition at 750 µg/mL [3],zone of inhibition at 1000 µg/mL [4],zone of inhibition at 500 µg/mL [5],zone of inhibition at 750 µg/mL [6],zone of inhibition at 1000 µg/mL [7],zone of inhibition at 500 µg/mL [8],zone of inhibition at 750 µg/mL [9],zone of inhibition at 1000 µg/mL [10],zone of inhibition at 500 µg/mL [11],zone of inhibition at 750 µg/mL [12],zone of inhibition at 1000 µg/mL [13],zone of inhibition at 500 µg/mL [14],zone of inhibition at 750 µg/mL [15],zone of inhibition at 1000 µg/mL [16],zone of inhibition at 500 µg/mL [17],zone of inhibition at 750 µg/mL [18],zone of inhibition at 1000 µg/mL [19],zone of inhibition at 500 µg/mL [20],further results
Cc1ccc(C2=CC(c3c(-c4ccccc4)[nH]c4ccc(C)cc34)c3c(N)nc(=S)[nH]c3O2)cc1 (stereo not given),Active,9 mm,8 mm,9 mm,5 mm,5 mm,5 mm,5 mm,5 mm,5 mm,0 mm,0 mm,0 mm,6 mm,5 mm,5 mm,6 mm,5 mm,5 mm,0 mm,zone of inhibition at 750 µg/mL [21]: 0 mm; zone of inhibition at 1000 µg/mL [22]: 0 mm; zone of inhibition at 500 µg/mL [23]: 5 mm; zone of inhibition at 750 µg/mL [24]: 4 mm; zone of inhibition at 1000 µg/mL [25]: 4 mm
Cc1ccc(C2=CC(c3c(-c4ccccc4)[nH]c4ccc(Cl)cc34)c3c(N)nc(=O)[nH]c3O2)cc1 (stereo not given),Active,12 mm,12 mm,13 mm,8 mm,8 mm,8 mm,12 mm,13 mm,13 mm,10 mm,10 mm,10 mm,10 mm,9 mm,8 mm,8 mm,8 mm,8 mm,0 mm,zone of inhibition at 750 µg/mL [21]: 0 mm; zone of inhibition at 1000 µg/mL [22]: 0 mm; zone of inhibition at 500 µg/mL [23]: 8 mm; zone of inhibition at 750 µg/mL [24]: 8 mm; zone of inhibition at 1000 µg/mL [25]: 10 mm
Cc1ccc2[nH]c(-c3ccccc3)c(C3C=C(c4ccccc4)Oc4[nH]c(=S)nc(N)c43)c2c1 (stereo not given),Active,9 mm,6 mm,5 mm,9 mm,8 mm,8 mm,3 mm,3 mm,3 mm,4 mm,3 mm,8 mm,9 mm,8 mm,8 mm,5 mm,4 mm,4 mm,10 mm,zone of inhibition at 750 µg/mL [21]: 9 mm; zone of inhibition at 1000 µg/mL [22]: 9 mm; zone of inhibition at 500 µg/mL [23]: 8 mm; zone of inhibition at 750 µg/mL [24]: 8 mm; zone of inhibition at 1000 µg/mL [25]: 8 mm
Nc1nc(=O)[nH]c2c1C(c1c(-c3ccccc3)[nH]c3ccccc13)C=C(c1ccccc1)O2 (stereo not given),Active,10 mm,9 mm,9 mm,6 mm,4 mm,3 mm,10 mm,10 mm,10 mm,5 mm,5 mm,3 mm,12 mm,12 mm,13 mm,10 mm,10 mm,10 mm,10 mm,zone of inhibition at 750 µg/mL [21]: 10 mm; zone of inhibition at 1000 µg/mL [22]: 5 mm; zone of inhibition at 500 µg/mL [23]: 10 mm; zone of inhibition at 750 µg/mL [24]: 8 mm; zone of inhibition at 1000 µg/mL [25]: 5 mm
O=c1[nH]cnc2c1C(c1c(-c3ccccc3)[nH]c3ccccc13)C=C(c1ccccc1)O2 (stereo not given),Active,9 mm,9 mm,9 mm,9 mm,8 mm,8 mm,5 mm,5 mm,5 mm,6 mm,6 mm,5 mm,5 mm,4 mm,4 mm,11 mm,10 mm,10 mm,10 mm,zone of inhibition at 750 µg/mL [21]: 10 mm; zone of inhibition at 1000 µg/mL [22]: 10 mm; zone of inhibition at 500 µg/mL [23]: 8 mm; zone of inhibition at 750 µg/mL [24]: 6 mm; zone of inhibition at 1000 µg/mL [25]: 6 mm
Cc1ccc2[nH]c(-c3ccccc3)c(C3C=C(c4ccc(Cl)cc4)Oc4nc5oc(=O)c(C#N)c(N)c5c(N)c43)c2c1 (stereo not given),Active,5 mm,5 mm,5 mm,10 mm,9 mm,8 mm,4 mm,3 mm,3 mm,10 mm,10 mm,10 mm,10 mm,10 mm,10 mm,11 mm,11 mm,9 mm,13 mm,zone of inhibition at 750 µg/mL [21]: 13 mm; zone of inhibition at 1000 µg/mL [22]: 14 mm; zone of inhibition at 500 µg/mL [23]: 13 mm; zone of inhibition at 750 µg/mL [24]: 13 mm; zone of inhibition at 1000 µg/mL [25]: 13 mm
